# From the NIST ThermoML archive (doi:10.1016/j.jct.2009.06.011)
# ± gives the expanded uncertainty stated by the source.
# Assay: activity coefficient (dimensionless); of the first substance listed, at infinite dilution; xn = mol fraction of the nth substance listed
# Settings: 101 kPa, Liquid, Chromatography, x1 = 0
SMILES,activity coefficient (298.15 K),activity coefficient (308.15 K),activity coefficient (318.15 K),activity coefficient (328.15 K),activity coefficient (338.15 K),activity coefficient (348.15 K),activity coefficient (358.15 K),activity coefficient (368.15 K)
C#CCCCC [1-hexyne] + CCCC[n+]1ccc(C)cc1.O=S(=O)([N-]S(=O)(=O)C(F)(F)F)C(F)(F)F,2.37 ± 0.16,2.39 ± 0.16,2.42 ± 0.16,2.44 ± 0.17,2.46 ± 0.17,2.48 ± 0.17,2.5 ± 0.17,2.52 ± 0.17
C#CCCC [1-pentyne] + CCCC[n+]1ccc(C)cc1.O=S(=O)([N-]S(=O)(=O)C(F)(F)F)C(F)(F)F,1.79 ± 0.12,1.82 ± 0.12,1.84 ± 0.12,1.87 ± 0.13,1.89 ± 0.13,1.91 ± 0.13,1.93 ± 0.13,1.95 ± 0.13
CCCOCCC [dipropyl ether] + CCCC[n+]1ccc(C)cc1.O=S(=O)([N-]S(=O)(=O)C(F)(F)F)C(F)(F)F,4.91 ± 0.33,4.81 ± 0.33,4.71 ± 0.32,4.62 ± 0.31,4.54 ± 0.31,4.45 ± 0.3,4.38 ± 0.3,4.31 ± 0.29
C#CCCCCCC [1-octyne] + CCCC[n+]1ccc(C)cc1.O=S(=O)([N-]S(=O)(=O)C(F)(F)F)C(F)(F)F,4.43 ± 0.3,4.42 ± 0.3,4.4 ± 0.3,4.38 ± 0.3,4.37 ± 0.3,4.36 ± 0.3,4.34 ± 0.3,4.33 ± 0.29
CCCCCCCCCC [decane] + CCCC[n+]1ccc(C)cc1.O=S(=O)([N-]S(=O)(=O)C(F)(F)F)C(F)(F)F,54.7 ± 3.7,49.3 ± 3.4,45 ± 3.1,41.1 ± 2.8,37.6 ± 2.6,34.6 ± 2.4,31.9 ± 2.2,29.7 ± 2
C1CCCCC1 [cyclohexane] + CCCC[n+]1ccc(C)cc1.O=S(=O)([N-]S(=O)(=O)C(F)(F)F)C(F)(F)F,8.93 ± 0.61,8.34 ± 0.57,7.76 ± 0.53,7.31 ± 0.5,6.96 ± 0.47,6.54 ± 0.45,6.23 ± 0.42,5.94 ± 0.4
C#CCCCCC [1-heptyne] + CCCC[n+]1ccc(C)cc1.O=S(=O)([N-]S(=O)(=O)C(F)(F)F)C(F)(F)F,3.2 ± 0.22,3.23 ± 0.22,3.24 ± 0.22,3.26 ± 0.22,3.27 ± 0.22,3.28 ± 0.22,3.29 ± 0.22,3.3 ± 0.22
C1CCOC1 [tetrahydrofuran] + CCCC[n+]1ccc(C)cc1.O=S(=O)([N-]S(=O)(=O)C(F)(F)F)C(F)(F)F,0.617 ± 0.043,0.63 ± 0.044,0.641 ± 0.044,0.653 ± 0.045,0.663 ± 0.045,0.673 ± 0.046,0.683 ± 0.046,0.693 ± 0.047
